Measured values: publication PMC11487632 (Molecular Pharmaceutics, 2024)
Converted amounts (≈) assume the structure as drawn. Where two headings read alike, the source gives them in different places. Values belong to the molecule of their own block, whether it stands above or below them.

What was measured:
[1] = cited from earlier work
[2] = Pre-dissolution procedure: apparent solubility of pure APIs in buffer with predissolved XAT derivatives (HPLC, Noyes-Whitney fit); format: physicochemical; settings: for effect of predissolved TPH on API solubility: 5-20 mM TPH in 100 mM phosphate buffer pH 6.8; for effect of predissolved CFN on API solubility: 10-50 mM CFN in 100 mM phosphate buffer pH 6.8; for solubility: phosphate buffer, 25 °C, pH 6.8, aqueous buffer, thermodynamic from solid, read-out: solubility (eq 1); for solubility / saturated concentration (curve fitting eq 1): 100 mM phosphate buffer pH 6.8, 298 K
Experimental: The sample solution was filtered with a membrane filter (Minisart RC 4 with 0.22 μm pore size; Sartorius, Göttingen, Germany). The fractionation of the API or XAT derivative in the filtrate was performed via HPLC (Shimadzu Co., Kyoto, Japan) using a mobile phase of 25 mM citric acid buffer (pH 3.0):methanol of 3:7 at a flow rate of 1 mL/min.
To assess the apparent solubility of pure APIs in solutions of XAT derivatives, “pre-dissolution procedures” were conducted. […] The API samples, adjusted to exceed saturation, were added to 5 mL of the dissolving medium and shaken in a water bath at 298 K for a specific duration. The concentration of API in the supernatant was measured using HPLC. The solubility concentrations of all APIs were determined from each API’s standard curves. The R-square values of all standard curves are over 0.995.
The dissolution process of the pure APIs or API mixtures assumably corresponded to a linear correlation or a saturation curve. The API samples were homogenized using an agate mortar and pestle to align the particle sizes without sieving, considering the potential contamination of superfine powders. The immediate dissolution of the adhering powders in the solution at t = 0 was assumed; additionally, their concentrations were treated as the initial concentration (C = C0) if a sink condition was applicable owing to the higher solubility of the API.
For curves resembling a saturation curve, nonlinear curve fitting using the Noyes–Whitney integral expression (eq 1) was applied:[48],[49] [drawing 1] 1 where Ceq is the apparent solubility of the API, k is the dissolution rate constant, and S is the surface area of the sample particles. […] Curve-fitting procedures employed the Solver module of Microsoft Excel 2016 with the implemented GRG nonlinear option. The recrystallized precipitates were verified by X-ray powder diffraction (XRPD) and differential scanning calorimetry (DSC); no cocrystals or other generated solids were observed.

[3] = Co-dissolution procedure: apparent solubility of API mixtures with CFN, TPH, TBR or XAT (HPLC, Noyes-Whitney fit); format: physicochemical; settings: for effect of codissolved CFN on API solubility / saturated concentration / effect of codissolved TBR on API dissolution curve / saturated concentration / effect of codissolved TPH on API solubility / saturated concentration / effect of codissolved XAT on API dissolution curve / saturated concentration: equimolar mixture; for increase of XAT-derivative solubility by IBP and DCF (NSAIDs): equimolar IBP or DCF mixtures
[4] = cited from earlier work; remark: listed apart in the source
[5] = parameters: method as in previous study; settings: ref previous study, cited from earlier work; for solubility during the predissolution procedure: presence or absence of cimetidine (CIM) in solution insignificant; for solubility during the codissolution procedure: simultaneous addition of CIM crystal powder
[6] = ref 18 (given for CFN and TPH only); cited from earlier work
[7] = ref 18 (given for CFN and TPH only); cited from earlier work; remark: listed apart in the source
[8] = ref 18 (not printed for TBR and XAT); cited from earlier work

Compound: Cn1c(=O)c2c(ncn2C)n(C)c1=O [CFN, caffeine]
distribution volume Vd ([1]; CFN): 0.7 L/kg

Compound: CC(C)Cc1ccc([C@H](C)C(=O)O)cc1 [IBP, (S)-(+)-ibuprofen]
effect of predissolved TPH on API solubility [2]: did not influence
effect of predissolved CFN on API solubility [2]: did not influence
saturated concentration (curve fitting eq 1) ([2]; predissolved CFN series, irrespective of CFN): 17.22 ± 0.61 mM
saturated concentration (curve fitting eq 1) ([2]; predissolved TPH series, irrespective of TPH): 17.34 ± 0.86 mM
effect of codissolved CFN on API solubility / saturated concentration ([3]; 100 mM phosphate buffer pH 6.8): decreased
effect of codissolved TBR on API dissolution curve / saturated concentration ([3]; 100 mM phosphate buffer pH 6.8): did not significantly affect
effect of codissolved TPH on API solubility / saturated concentration ([3]; 100 mM phosphate buffer pH 6.8): decreased
effect of codissolved XAT on API dissolution curve / saturated concentration ([3]; 100 mM phosphate buffer pH 6.8): did not significantly affect
solubility ([4]; 25 mM phosphate buffer (pH 6.88)): ~20000 µM (≈ 4130 µg/mL)
solubility ([4]; 100 mM phosphate buffer (pH 7.18)): approximately 40 mM
change of solubility in mixtures with lidocaine (LDC) ([4]; mixtures with LDC, without pH fluctuations): reduced

Compound: COc1ccc2c(c1)c(CC(=O)O)c(C)n2C(=O)c1ccc(Cl)cc1 [INM, indomethacin]
effect of CFN added to the dissolving medium on solubility ([2]; data not published): enhanced
solubility during the predissolution procedure [5]: 625 µM (≈ 224 µg/mL)
solubility during the codissolution procedure [5]: 3340 µM (≈ 1200 µg/mL)

Compound: Cn1c(=O)c2[nH]cnc2n(C)c1=O [TPH, theophylline]
effect of IBP on saturation concentration of the XAT derivative ([3]; equimolar mixtures with IBP, effect of DCF greater than that of IBP): increased
distribution volume Vd ([1]; TPH, no reference given): 0.5 L/kg
therapeutic range in the blood ([1]; narrow therapeutic range): 0.06 to 0.11 mmol/L
water solubility [6]: 40000 µM (≈ 7210 µg/mL)
log P [7]: 0.00

More lines, main results first:

effect of predissolved TPH on API solubility [2]: enhanced
effect of predissolved CFN on API solubility [2]: enhanced
solubility ([2]; in the absence of CFN (CFN series)): 1760 ± 44 µM (≈ 521 µg/mL)
solubility ([2]; in the absence of TPH (TPH series)): 1690 ± 53 µM (≈ 499 µg/mL)
effect of codissolved CFN on API solubility / saturated concentration ([3]; 100 mM phosphate buffer pH 6.8): increased
effect of codissolved TBR on API dissolution curve / saturated concentration ([3]; 100 mM phosphate buffer pH 6.8): did not significantly differ
effect of codissolved TPH on API solubility / saturated concentration ([3]; 100 mM phosphate buffer pH 6.8): increased
effect of codissolved XAT on API dissolution curve / saturated concentration ([3]; 100 mM phosphate buffer pH 6.8): did not significantly differ
Compound: O=C(O)Cc1ccccc1Nc1c(Cl)cccc1Cl [DCF, diclofenac]
solubility ([4]; 50 mM MES buffer (pH 5.5)): ~100 µM (≈ 29.6 µg/mL)
solubility ([4]; 100 mM phosphate buffer (pH 6.45)): approximately 0.7 mM
change of solubility on addition of 10 mM LDC to the dissolution buffer ([4]; within the buffering capacity range): increased
effect of famotidine (FAM) on final solubility ([5]; equilibrated solution, FAM delayed dissolution): not affected
solubility during the predissolution procedure [5]: 829 µM (≈ 246 µg/mL)
solubility during the codissolution procedure [5]: 3390 µM (≈ 1000 µg/mL)

solubility ([3]; 25 °C, aqueous buffer, thermodynamic from solid, pure, 100 mM phosphate buffer pH 6.8, read-out: solubility of the pure XAT derivative): 1000 µM (≈ 180 µg/mL)
increase of XAT-derivative solubility by IBP and DCF (NSAIDs) [3]: 3 fold
Compound: Cn1cnc2c1c(=O)[nH]c(=O)n2C [TBR, theobromine]
water solubility [6]: 2000 µM (≈ 360 µg/mL)
log P [7]: −0.78
pKa [8]: 10.05

increase of XAT-derivative solubility by IBP and DCF (NSAIDs) [3]: 2 fold
Compound: O=c1[nH]c(=O)c2[nH]cnc2[nH]1 [XAT, xanthine]
